Consider twelve compounds from ChEMBL document CHEMBL1201862, “PubChem BioAssay data set” (2004).

Some test systems named below: BT-549; HCT-116; HOP-62; HOP-92; NCI-H23; OVCAR-3; OVCAR-4; OVCAR-5; RPMI-8226; SK-MEL-28; SNB-19; SNB-75; TK-10; U-251; UACC-257; UACC-62; UO-31; NCI-H522; HCC 2998.
Holding throughout (assay): inhibition of tumour cell growth, NCI panel, 48 h

The structures appear in SMILES notation.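 1) Cells in 96-well plates. 2) Compound, 48 h, 5 concentrations. 3) Linear interpolation between surrounding doses. 4) Unreached endpoint = highest concentration. The concentration for 50% growth inhibition is given as GI50.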 Calls of active or inactive are those of the source. Rule as the data show it: active = GI50 up to about 1.1 µM and inactive = higher. Some results are limits rather than exact numbers.

Turning to `CN(C)CCCNCc1cccc2ccccc12`, the GI50 with BT-549 is > 100 µM (inactive); in the assay with HCT-116 it was > 100 µM (inactive); with HOP-62, > 100 µM (inactive); with HOP-92, 78.3 µM (inactive); in the assay with NCI-H23, > 100 µM (inactive); in the assay with OVCAR-3 it was > 100 µM (inactive). For the same compound, the GI50 in the assay with OVCAR-4, in the assay on OVCAR-5, in the assay with RPMI-8226, in the assay on SK-MEL-28, with SNB-19 and in the assay with SNB-75 was > 100 µM (inactive) in each case. Besides, the GI50 in the assay on TK-10, with U-251, in the assay on UACC-257, in the assay on UACC-62 and in the assay with UO-31 was > 100 µM (inactive) throughout.

Regarding `CC(C)N(c1cc2c(cc1F)c(=O)c(C(=O)O)cn2-c1ccc(N2CCN(C)CC2)cn1)C(C)C`, the GI50 is 86.7 µM (inactive) in the assay on BT-549; > 100 µM (inactive) with HCT-116; > 100 µM (inactive) in the assay on HOP-62; > 100 µM (inactive) in the assay with HOP-92; > 100 µM (inactive) with NCI-H23; > 100 µM (inactive) in the assay with OVCAR-3. Moreover, the GI50 in the assay on OVCAR-4, in the assay on OVCAR-5, in the assay on RPMI-8226, in the assay on SK-MEL-28, in the assay on SNB-19 and with SNB-75 was > 100 µM (inactive) throughout. The GI50 in the assay with TK-10 is > 100 µM (inactive); in the assay with U-251, > 100 µM (inactive); in the assay on UACC-257, > 100 µM (inactive); in the assay on UACC-62, > 10 µM (inactive); in the assay on UO-31, > 100 µM (inactive).

Take `COc1nc2c(c(=O)n1C)N[C@@H]1[C@@H](O)[C@H](O)CO[C@@H]1N2`: the GI50 with BT-549 was > 100 µM (inactive); in the assay on HCT-116 it was > 100 µM (inactive); in the assay with HOP-62, > 100 µM (inactive); in the assay on NCI-H522, 38.2 µM (inactive); in the assay with OVCAR-3 it was > 100 µM (inactive); in the assay with OVCAR-4 it was > 100 µM (inactive). Also, the GI50 in the assay with OVCAR-5, in the assay with RPMI-8226, in the assay on SK-MEL-28, with SNB-19, in the assay with SNB-75 and with TK-10 was > 100 µM (inactive) throughout. Also, the GI50 in the assay on U-251, in the assay with UACC-257, in the assay on UACC-62 and with UO-31 was > 100 µM (inactive) each time.

As for `CC(NC(=O)CNP(=O)(c1ccccc1)c1ccccc1)C(=O)NC(Cc1ccccc1)C(=O)OCc1ccccc1` (stereo not drawn), the GI50 with BT-549 is > 100 µM (inactive); in the assay with HCT-116, 34.9 µM (inactive); in the assay on HOP-62, > 100 µM (inactive); in the assay on HOP-92, > 100 µM (inactive); in the assay with NCI-H23 it was 37.8 µM (inactive); with NCI-H522, 19.6 µM (inactive). The GI50 is 43 µM (inactive) in the assay with OVCAR-3; > 100 µM (inactive) in the assay with OVCAR-5; 33 µM (inactive) in the assay with RPMI-8226; 23.8 µM (inactive) with SK-MEL-28; 51.2 µM (inactive) in the assay with SNB-19; 19.6 µM (inactive) with SNB-75. Also, the GI50 is > 100 µM (inactive) in the assay on TK-10; 23.4 µM (inactive) with U-251; > 100 µM (inactive) in the assay on UACC-257; 36.3 µM (inactive) with UACC-62; > 100 µM (inactive) in the assay on UO-31.

With `CN(C)C(=O)Oc1ccc(C(=S)Nc2ccccc2)cc1`, the GI50 with BT-549 is 32 µM (inactive); in the assay on HCC 2998, > 100 µM (inactive); in the assay with HCT-116, > 100 µM (inactive); in the assay on HOP-62, > 100 µM (inactive); in the assay on NCI-H23, 28.6 µM (inactive); in the assay on NCI-H522, 64.4 µM (inactive). The GI50 is 86.5 µM (inactive) in the assay on OVCAR-3; 32.1 µM (inactive) with OVCAR-4; > 100 µM (inactive) in the assay with OVCAR-5; 64.1 µM (inactive) with RPMI-8226; 33.1 µM (inactive) with SK-MEL-28; > 100 µM (inactive) in the assay with SNB-19. The GI50 with U-251 was > 100 µM (inactive); with UACC-257 it was 34.8 µM (inactive); with UACC-62, 35.9 µM (inactive); in the assay with UO-31, 75.3 µM (inactive).

For the compound `O=C(CNc1cccc([N+](=O)[O-])c1)Nn1c(-c2ccccc2)nc2ccccc2c1=O`, the GI50 in the assay on BT-549 is 1.87 µM (inactive); in the assay on HCC 2998 it was 1.49 µM (inactive); in the assay on HCT-116, 0.508 µM (active); in the assay on HOP-62, 1.97 µM (inactive); with NCI-H23, 0.653 µM (active); in the assay with NCI-H522, 0.433 µM (active). Also, the GI50 with OVCAR-3 was 2.38 µM (inactive); with OVCAR-4, 2.18 µM (inactive); with OVCAR-5 it was 1.77 µM (inactive); in the assay on RPMI-8226 it was 0.478 µM (active); with SK-MEL-28, 0.513 µM (active); with SNB-19, 2.11 µM (inactive). Further, the GI50 was 0.363 µM (active) with TK-10; 1.05 µM (active) with U-251; 2.15 µM (inactive) in the assay on UACC-257; 0.212 µM (active) with UACC-62; 0.743 µM (active) in the assay on UO-31.

With `CC(=O)Nc1nc(O)c2nc(C=O)cnc2n1`, the GI50 with BT-549, in the assay with HCT-116, with HOP-62, in the assay on HOP-92, in the assay with NCI-H23 and with NCI-H522 was > 100 µM (inactive) throughout. Besides, the GI50 with OVCAR-3, in the assay on OVCAR-4, in the assay on OVCAR-5, with RPMI-8226, with SK-MEL-28 and in the assay on SNB-19 was > 100 µM (inactive) each time. The GI50 in the assay on SNB-75, in the assay on TK-10, in the assay on U-251, with UACC-257, in the assay on UACC-62 and in the assay on UO-31 was > 100 µM (inactive) in each case.

As to `CCCCC/C=C\C=C\CCCCCCCCC(=O)OC`, the GI50 in the assay on BT-549, in the assay on HCT-116, in the assay on HOP-62, in the assay with HOP-92, in the assay with NCI-H23 and with OVCAR-3 was > 100 µM (inactive) throughout. For the same compound, the GI50 with OVCAR-4, in the assay on OVCAR-5, in the assay on RPMI-8226, with SK-MEL-28, in the assay on SNB-19 and in the assay on SNB-75 was > 100 µM (inactive) in each case. For the same compound, the GI50 is > 100 µM (inactive) in the assay on TK-10, > 100 µM (inactive) in the assay on U-251, > 100 µM (inactive) with UACC-257 and 13.9 µM (inactive) in the assay with UO-31.

For the compound `Cc1cc(/N=C/c2ccc(F)cc2)n(-c2ccccc2)n1`, the GI50 in the assay on BT-549 is 85.1 µM (inactive); in the assay on HCT-116, > 100 µM (inactive); in the assay on HOP-62, > 100 µM (inactive); in the assay on HOP-92, 89.1 µM (inactive); in the assay with NCI-H23, 82.2 µM (inactive); in the assay on NCI-H522, 39.1 µM (inactive). The GI50 was > 100 µM (inactive) in the assay with OVCAR-3; 75.7 µM (inactive) with OVCAR-4; > 100 µM (inactive) with OVCAR-5; 21.3 µM (inactive) in the assay on RPMI-8226; > 100 µM (inactive) with SK-MEL-28; > 100 µM (inactive) with SNB-19. Moreover, the GI50 in the assay on SNB-75 was 56.1 µM (inactive); with TK-10 it was 57 µM (inactive); in the assay with U-251, > 100 µM (inactive); in the assay with UACC-257, 50.1 µM (inactive); in the assay on UACC-62 it was > 100 µM (inactive); with UO-31, > 100 µM (inactive).

Take `COc1cc2nc3n(c(=O)c2cc1OC)CCCCC3`: the GI50 in the assay with BT-549, in the assay on HCT-116, in the assay with HOP-62, with HOP-92, in the assay with NCI-H23 and in the assay on NCI-H522 was > 100 µM (inactive) in each case. The GI50 in the assay with OVCAR-3 was > 100 µM (inactive); with OVCAR-4 it was > 100 µM (inactive); in the assay with OVCAR-5 it was > 100 µM (inactive); in the assay on RPMI-8226, 83.9 µM (inactive); with SK-MEL-28 it was > 100 µM (inactive); with SNB-75, > 100 µM (inactive). In addition, the GI50 in the assay on TK-10, in the assay on U-251, with UACC-257, with UACC-62 and in the assay on UO-31 was > 100 µM (inactive) each time.

As for `Cc1cc(C)cc(C(=N)c2ccccc2Cc2cccc3ccccc23)c1`, the GI50 is 37.8 µM (inactive) with BT-549; 10.1 µM (inactive) in the assay with HCT-116; 18 µM (inactive) in the assay on HOP-62; 13.3 µM (inactive) in the assay on HOP-92; 15.7 µM (inactive) in the assay with NCI-H23; 7.28 µM (inactive) with NCI-H522. The GI50 is 18.7 µM (inactive) with OVCAR-3; 15.8 µM (inactive) in the assay with OVCAR-4; 16.6 µM (inactive) with OVCAR-5; 20.3 µM (inactive) with RPMI-8226; 16.9 µM (inactive) with SK-MEL-28; 19.5 µM (inactive) with SNB-19. The GI50 in the assay with TK-10 is 25.6 µM (inactive); with U-251, 40.6 µM (inactive); in the assay on UACC-257, 22.2 µM (inactive); with UACC-62 it was 13.9 µM (inactive); in the assay with UO-31 it was 26.4 µM (inactive).

Regarding `Cc1cc(-c2nc3ccccc3s2)ccc1NS(=O)(=O)O`, the GI50 was 0.544 µM (active) in the assay on BT-549; > 4.65 µM (inactive) with HCT-116; > 7.11 µM (inactive) in the assay with NCI-H23; > 4.65 µM (inactive) in the assay with OVCAR-5; > 4.65 µM (inactive) with RPMI-8226; > 42 µM (inactive) with SK-MEL-28. Also, the GI50 in the assay on SNB-19 is > 24.4 µM (inactive); in the assay with SNB-75 it was > 67 µM (inactive); in the assay with TK-10, > 26.1 µM (inactive); with UACC-257, > 6.43 µM (inactive); in the assay with UACC-62, > 12.2 µM (inactive); in the assay on UO-31, > 7.82 µM (inactive).
